In a melting point compilation (Tetko et al.; mined from patent text by program, amines drawn as free bases though some values may be those of a salt):

Compound	melting point [°C]
Cc1cc(C)c(S(=O)(=O)N2CCCC2c2ccc(F)cc2)c(C)c1 (racemic)	111
COc1cc2c(c(OC(C)=O)c1)C1CCC3(C)C(OC(C)=O)CCC3C1CC2 (configuration not stated)	120 to 121
O=C(C1CCN(CCO)CC1)N1CCN2C(=O)OC(c3ccccc3)(c3ccccc3)C2C1 (configuration not stated)	160 to 162
COc1cc(O)c2c(=O)c(OC)c(-c3ccc(OC(=O)C(C)(C)C)c(OC)c3)oc2c1	163 to 164
CN1CCCCC1CCc1ccccc1NC(=O)c1ccccc1C(=O)O (configuration not stated)	171 to 172
COc1cccc2c1Oc1ccc(C(=O)OC(C)C)cc1NC2	110
CCOC(=O)c1cn2c3c(c(F)c(Cl)cc3c1=O)OCC2C (configuration not stated)	263 to 264
COC(=O)C1=C(C)NC(C)=C(C(=O)OCC(C)C)C1c1cccc2nonc12 (configuration not stated)	148 to 158
COc1cc2cc(C(=O)N3CC(COS(C)(=O)=O)c4c3cc([N+](=O)[O-])c3ccccc43)[nH]c2c(OC)c1OC (configuration not stated)	214
CNC(=O)c1ccc2c(c1)OC(c1ccccc1)(c1ccccc1)O2	144 to 145
CCC(OC(=O)CS(C)(=O)=O)c1ccc(Cl)c2nc3n(c12)CCCN3c1ccc(Cl)cc1Cl (configuration not stated)	187 to 189
CCC(COC)n1cnc2c(Nc3ccc(C(F)(F)F)cc3Br)nc(C)nc21 (configuration not stated)	123 to 124
CCOC(=O)C=Cc1cccc(N)c1	84 to 85
CCOC(=O)C1=C(C)Nc2nc(N)nc(N)c2C1c1cc(OC)c(OC)c(OC)c1 (configuration not stated)	126
COc1ccccc1SC(CC(C)C)c1c(O)cc(-c2ccccc2)oc1=O (configuration not stated)	75 to 78
CN1C(=O)N(c2cc(Cl)cc(Cl)c2)C(=O)[C@]12CN(Cc1ccccc1)C[C@H]2c1ccc(-c2cncnc2)cc1 (relative stereo)	228
O=C1CCN(Cc2ccc3c(c2)OCO3)CC1C(c1ccccc1)c1ccccc1 (configuration not stated)	113 to 114
CCCCC(NC(=O)C(CC(C)C)NC(=O)c1cccc2ccccc12)C(=O)CSCc1ccco1 (configuration not stated)	81 to 83
COc1cc(OCc2ccc3c(c2)C(C)(C)CCC3(C)C)ccc1C(=O)OCc1ccccc1	112 to 113

Compound	melting point [°C]
CCN(C(=O)C(C)Oc1ccc(Oc2ncc(Cl)cc2Cl)cc1)C(CS)C(=O)O (configuration not stated)	89 to 91
COC(=O)CCNC(=O)c1ccc2c(c1)nc(-c1ccc(C#N)cc1)n2CCC(c1ccccc1)c1ccccc1	157 to 159
Cc1c2n(c3ccccc13)C(=O)C(Cn1ccnc1C)CC2 (configuration not stated)	120 to 121
COc1ccc(N(CCCC(=O)O)C(=O)CCCN(C(=O)c2ccc(Cl)cc2)c2c(C)cccc2C)cc1	119 to 121
Cn1nnnc1-c1cnc2cc(F)c(F)cc2c1O	> 300
COCc1ccc(Oc2cc(OC(C)C)c3[nH]c(C4=NCC(CC(=O)NC5CC5)S4)cc3c2)cn1 (configuration not stated)	100 to 101
CCOC(=O)C(=O)C1C(=O)c2cccc3cccc1c23 (configuration not stated)	101 to 103
Cc1cc(-c2nc3cccnn3c2-c2ccnc(NC(=O)NCC(C)O)c2)ccc1F (configuration not stated)	139 to 140
CCNC(=O)[C@H](C)NC(=O)[C@H](C)NC(=O)CC	289 to 291
O=c1[nH]c(=S)c2[nH]cnc2n1-c1ccccc1	> 290
O=C(NCc1ccccc1)c1ccnc(NC(=O)c2ccccc2F)c1	175 to 176
O=C(N1CCC(O)(c2ccccc2)CC1)C(F)(F)F	123 to 125
N#CNC(=O)c1cc2cc(N3CCN(CCCCc4c[nH]c5ccc(C#N)cc45)CC3)ccc2o1	190
Cc1cc(C2=NNC(=O)CC2)c2c(c1)N(C)C(=O)CO2	266 to 270
OCN1CCN=C1CC(c1ccccc1)c1ccccc1	161 to 163
CC(C)c1csc(/C=C/c2cccc(OCCC(C)(C)C(=O)O)c2)n1	112 to 113
COC(=O)C1CN1C(C)=O (configuration not stated)	39 to 40
CCCCc1nc2c(N)nc3ccccc3c2n1CCCNS(=O)(=O)c1ccc(C)cc1	197 to 198
